Laboratory results from the supplement of paper PMC10307832.

How the values were obtained:
Test in all cases: relative viability (nuclei count vs DMSO), 5 days (fraction); higher = more cells survive
Apatinib + Linsitinib = compound: N#CC1(c2ccc(NC(=O)c3cccnc3NCc3ccncc3)cc2)CCCC1 [Apatinib] + C[C@]1(O)C[C@@H](c2nc(-c3ccc4ccc(-c5ccccc5)nc4c3)c3c(N)nccn32)C1 [Linsitinib] (partner 1 µM)
How it was run: (§1)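 Nuclei were stained with Hoechst during a one-step fixation (final 0.05% Triton X-100, 1% formaldehyde, 1 ug/ml Hoechst) carried out 5 days after dosing, then counted on 4× images. The cells, lung cancer lines in 1536-well plates, had been dosed by pin tool the day after seeding with one drug alone or a fixed anchor-drug dose plus five library-drug doses (not always all listed) in √10 steps. Relative viability is the nuclei count in treated wells divided by that in vehicle wells, and each value is the median of duplicate plates.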

Apatinib + Trametinib = compound: N#CC1(c2ccc(NC(=O)c3cccnc3NCc3ccncc3)cc2)CCCC1 [Apatinib] + CC(=O)Nc1cccc(-n2c(=O)n(C3CC3)c(=O)c3c(Nc4ccc(I)cc4F)n(C)c(=O)c(C)c32)c1 [Trametinib] (partner 0.02 µM)
How it was run: as §1

Apatinib + Decitabine = compound: N#CC1(c2ccc(NC(=O)c3cccnc3NCc3ccncc3)cc2)CCCC1 [Apatinib] + Nc1ncn([C@H]2C[C@H](O)[C@@H](CO)O2)c(=O)n1 [Decitabine] (partner 2 µM)
How it was run: as §1

Metformin + Luminespib = compound: CN(C)C(=N)NC(=N)N [Metformin] + CCNC(=O)c1noc(-c2cc(C(C)C)c(O)cc2O)c1-c1ccc(CN2CCOCC2)cc1 [Luminespib] (partner 0.01 µM)
How it was run: as §1

Cell Line | relative viability (Apatinib + Linsitinib; first compound 0.08 µM) | relative viability (Apatinib + Linsitinib; first compound 0.253 µM) | relative viability (Apatinib + Linsitinib; first compound 0.8 µM) | relative viability (Apatinib + Linsitinib; first compound 2.53 µM) | relative viability (Apatinib + Linsitinib; first compound 8 µM) | relative viability (Apatinib + Trametinib; first compound 0.08 µM) | relative viability (Apatinib + Trametinib; first compound 0.253 µM) | relative viability (Apatinib + Trametinib; first compound 0.8 µM) | relative viability (Apatinib + Trametinib; first compound 2.53 µM) | relative viability (Apatinib + Trametinib; first compound 8 µM) | relative viability (Apatinib + Decitabine; first compound 0.08 µM) | relative viability (Apatinib + Decitabine; first compound 0.253 µM) | relative viability (Apatinib + Decitabine; first compound 0.8 µM) | relative viability (Apatinib + Decitabine; first compound 2.53 µM) | relative viability (Apatinib + Decitabine; first compound 8 µM) | relative viability (Metformin + Luminespib; first compound 10 µM) | relative viability (Metformin + Luminespib; first compound 31.62 µM) | relative viability (Metformin + Luminespib; first compound 100 µM) | relative viability (Metformin + Luminespib; first compound 316.23 µM) | relative viability (Metformin + Luminespib; first compound 1000 µM)
SW 1573 | 0.898 | 0.784 | 0.979 | 0.885 | 0.854 | 0.554 | 0.729 | 0.543 | 0.603 | 0.352 | 0.77 | 0.615 | 0.593 | 0.513 | 0.603 | 0.266 | 0.255 | 0.51 | 0.157 | 0.153
HARA | 1.04 | 0.983 | 0.994 | 0.995 | 0.882 | 0.736 | 0.829 | 0.673 | – | 0.6 | 0.676 | 0.538 | 0.438 | – | 0.671 | – | 0.897 | 0.895 | 0.775 | 0.776
NCI-H1793 | 0.974 | 0.931 | 0.716 | 0.599 | 0.685 | 0.432 | 0.449 | 0.443 | 0.34 | 0.301 | 0.555 | 0.535 | 0.516 | 0.541 | 0.564 | 0.22 | – | 0.147 | 0.16 | 0.235
NCI-H727 | 0.33 | 0.33 | 0.415 | 0.348 | 0.36 | 0.386 | – | 0.386 | 0.416 | 0.342 | 0.89 | – | 0.973 | 0.985 | 0.729 | 0.566 | 0.496 | 0.387 | – | 0.477
201T | 1.03 | 1.02 | 1.09 | 1.05 | 1.04 | 0.731 | 0.725 | 0.68 | 0.729 | 0.607 | 0.863 | 0.895 | 0.842 | 0.85 | 0.781 | – | 1.15 | 1.1 | 1.06 | 1.03
NCI-H838 | 1.14 | 1.18 | 0.962 | 0.985 | 1.04 | 0.626 | 0.573 | 0.473 | 0.49 | 0.467 | 0.489 | 0.48 | 0.493 | 0.442 | 0.469 | 0.258 | 0.289 | 0.291 | 0.237 | 0.251
NCI-H1734 | 0.969 | 1.04 | 0.897 | 0.738 | 0.809 | 0.689 | 0.712 | 0.682 | 0.664 | 0.618 | 0.532 | 0.549 | 0.482 | 0.563 | 0.623 | 0.145 | 0.2 | 0.206 | 0.181 | 0.19
NCI-H1915 | 1.15 | 1.02 | 1.08 | 1.06 | 0.921 | 0.321 | 0.315 | 0.311 | 0.302 | 0.286 | 0.296 | 0.266 | 0.265 | 0.339 | 0.388 | – | 0.724 | 0.835 | 0.785 | 0.795
BEN | 0.864 | 0.933 | 0.88 | 0.81 | 0.699 | 1.22 | 0.944 | 1.11 | 0.948 | 0.687 | 0.694 | 0.668 | 0.672 | 0.693 | 0.723 | 0.461 | 0.475 | 0.833 | 0.361 | 0.705
NCI-H1355 | 0.97 | 0.863 | 0.802 | 0.685 | 0.666 | 0.422 | 0.444 | 0.354 | 0.367 | 0.314 | 0.35 | 0.349 | 0.39 | 0.367 | 0.447 | 0.752 | 0.704 | 0.768 | 0.701 | 0.752
NCI-H1975 | 0.988 | 0.954 | 0.931 | 0.854 | 0.888 | 0.352 | 0.3 | 0.417 | 0.424 | 0.36 | 0.406 | 0.372 | 0.413 | 0.381 | 0.466 | 0.156 | 0.122 | 0.363 | 0.335 | 0.336
HCC-44 | 0.673 | 0.759 | 0.66 | 0.711 | 0.592 | 1.08 | 0.993 | 1.07 | 1.09 | 0.811 | 0.963 | 0.929 | 0.887 | 0.95 | 0.89 | 1.19 | 1.07 | 1.03 | 0.926 | 0.748
NCI-H2087 | 1.07 | 0.925 | 0.907 | 0.924 | 0.716 | 0.188 | 0.169 | 0.205 | 0.195 | 0.191 | 0.272 | 0.285 | 0.331 | 0.239 | 0.236 | – | 0.293 | 0.225 | 0.223 | 0.157
